Measurements from patent publication US8871751B2, “Compositions and methods relating to nuclear hormone and steroid hormone receptors including inhibitors of estrogen receptor alpha-mediated gene expression and inhibition of breast cancer” (The Board of Trustees of the University of Illinois, priority 2008, dated 2014).
Several values for one entry are separate records, joined by “and”; a condition that tells them apart may be missing. Equal entries are not always repeated.

Biological target: T1, ERα (Homo sapiens, UniProt P03372)
T1 sequence (P03372 1-595): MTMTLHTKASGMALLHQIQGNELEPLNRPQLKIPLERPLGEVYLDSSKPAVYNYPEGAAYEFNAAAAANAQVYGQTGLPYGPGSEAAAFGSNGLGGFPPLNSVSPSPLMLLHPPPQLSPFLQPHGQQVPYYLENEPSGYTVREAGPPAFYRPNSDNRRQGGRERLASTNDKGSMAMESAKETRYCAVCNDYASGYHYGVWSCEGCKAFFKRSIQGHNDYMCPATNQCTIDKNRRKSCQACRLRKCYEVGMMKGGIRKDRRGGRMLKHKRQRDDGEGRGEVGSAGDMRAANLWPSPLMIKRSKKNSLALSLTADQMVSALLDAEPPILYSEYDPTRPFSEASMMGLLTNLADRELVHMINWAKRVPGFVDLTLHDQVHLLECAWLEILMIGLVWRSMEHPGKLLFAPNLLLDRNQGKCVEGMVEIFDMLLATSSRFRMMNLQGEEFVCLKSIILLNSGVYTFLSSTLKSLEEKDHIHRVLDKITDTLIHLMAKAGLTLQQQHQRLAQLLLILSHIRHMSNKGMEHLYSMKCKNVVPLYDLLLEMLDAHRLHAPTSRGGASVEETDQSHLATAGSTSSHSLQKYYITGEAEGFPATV
Experiment: PI-9 mRNA induction in tamoxifen-resistant MCF7ERαHA cells (qRT-PCR)
Type: cell-based
Set-up: endogenous in cells
Conditions: Dox
Text: A model for tamoxifen-resistant breast cancers that overexpress ERα is MCF7ERαHA cells, which is a tetracycline-inducible MCF-7 model in which doxycycline (Dox) induces overexpression of ERα (40,41). In contrast to MCF-7 cells, in these cells Tam and OHT are potent agonists (2,42) and OHT, which stabilizes ERα, induced proteinase inhibitor 9 (PI-9) mRNA and protein more effectively than E2 (2,43). MCF7ERαHA cells were maintained in 10% 6XCD-treated FBS (40,41). All cells were in 0.1% DMSO vehicle and contained the indicated concentrations of TPBM added at the same time as the E2 or OHT. To induce PI-9 mRNA, the cells were treated with 0.5 μg/ml doxycycline to induce ERα and ethanol vehicle, 100 pM E2 or 500 pM OHT for 24 h, mRNA was extracted and PI-9 mRNA levels were determined by quantitative RT-PCR as described (2).
Endogenous Gene Expression. MCF-7 cells or MCF7ERαHA cells were maintained for 4 days in medium containing 5% CD calf serum (MCF-7 cells) or 10% 6×CD-FBS (MCF7ERαHA cells). In assays of TPSF inhibition of PI-9 induction, cells were plated, incubated for 24 hours in the indicated concentrations of TPSF and then maintained 4 hours with and without E2, with and without TPSF. To induce ERα, MCF7ERαHA cells were also maintained in 0.5 μg/ml Dox for 24 hours prior to addition of E2 or OHT with or without TPSF. For induction of cyclin D1, 24 hours after plating the cells, E2 with and without TPSF was added, the cells were maintained for 24 hours, RNA was extracted and mRNA levels were determined by quantitative RT-PCR as described (19, 26). Actin mRNA levels were used as the qRT-PCR internal standard. The primers and sequences used in qRT-PCR were as follows.

inhibition of OHT-ERα induction of PI-9 mRNA (30 μM, 500 pM OHT) [%] | IC50 (100 pM E2, 24 h, read-out: IC50 for inhibition of E2-ERα induction of PI-9 mRNA) | effect on E2-mediated induction of PI-9 mRNA (10 μM, 100 pM E2) | effect on OHT-ERα induction of PI-9 mRNA (10 μM, 500 pM OHT) | Compound
48 | 9 µM and 8.5 µM | – | – | Cn1c(=O)c2nc(CSCc3ccccc3)[nH]c2n(C)c1=O [Compound 95910, 8-Benzylsulfanylmethyl-1,3-dimethyl-3,7-dihydro-purine-2,6-dione]
– | – | blocked | blocked | Cn1c(=S)c2[nH]c(SCCCC(=O)c3ccc(F)cc3)nc2n(C)c1=O [TPSF, Butyrophenone, p-fluoro-4-(1,2,3,6,-tetrahydro-1,3-dimethyl-2-oxo-6-thionopurin-8-ylthio)]
